From ChEMBL document CHEMBL4371047, “Effect of α-Methoxy Substitution on the Anti-HIV Activity of Dihydropyrimidin-4(3 H)-ones” (J Med Chem, 2019)

Assays:
[1] = system: Human immunodeficiency virus 1; experiment: Antiviral activity against wild type HIV 1 NL4-3 infected in human MT4 cells assessed as inhibition of virus-induced cytopathic effect after 5 days by MTT assay; type: functional, organism-based; conditions: Human immunodeficiency virus 1, NL4-3, MT4, 120 h
[2] = system: Human immunodeficiency virus type 1 reverse transcriptase (Human immunodeficiency virus 1), Q72547 [K103N]
Description: Inhibition of recombinant HIV-1 His-tagged reverse transcriptase p66/p51 K103N mutant expressed in Escherichia coli assessed as reduction in [3H]dTTP incorporation using poly(rA)/oligo(dT) as template/primer after 20 mins by scintillation counting analysis

[3] = system: Human immunodeficiency virus 1; experiment: Resistance index, ratio of ID50 for recombinant HIV-1 His-tagged reverse transcriptase p66/p51 L100I mutant to ID50 for recombinant wild type HIV-1 reverse transcriptase His-tagged p66/p51
[4] = Therapeutic index, ratio of CC50 for human MT4 cells to EC50 for HIV-1 NL4-3 infected in human MT4 cells; type: toxicity, cell-based; conditions: read-out: Ratio CC50/EC50
[5] = system: Human immunodeficiency virus type 1 reverse transcriptase (Human immunodeficiency virus 1), Q72547 [Y181I]
[6] = system: Human immunodeficiency virus 1; experiment: Antiviral activity against HIV 1 harboring reverse transcriptase Y181C mutant infected in human MT4 cells assessed as inhibition of virus-induced cytopathic effect after 5 days by MTT assay; type: functional, organism-based; conditions: Human immunodeficiency virus 1, MT4, 120 h
[7] = system: Human immunodeficiency virus 1; experiment: Resistance index, ratio of EC50 for HIV-1 harboring reverse transcriptase Y188L mutant to EC50 for wild type HIV-1 NL4-3; type: functional
[8] = system: Human immunodeficiency virus 1; experiment: Resistance index, ratio of EC50 for HIV-1 harboring reverse transcriptase Y181C mutant to EC50 for wild type HIV-1 NL4-3; type: functional
[9] = system: Human immunodeficiency virus type 1 reverse transcriptase (Human immunodeficiency virus 1), Q72547 [L100I]
[10] = system: Human immunodeficiency virus 1; experiment: Resistance index, ratio of EC50 for HIV-1 harboring reverse transcriptase K103N mutant to EC50 for wild type HIV-1 NL4-3; type: functional
[11] = system: Human immunodeficiency virus 1; experiment: Resistance index, ratio of ID50 for recombinant HIV-1 His-tagged reverse transcriptase p66/p51 Y181I mutant to ID50 for recombinant wild type HIV-1 reverse transcriptase His-tagged p66/p51
[12] = target: Human immunodeficiency virus type 1 reverse transcriptase (Human immunodeficiency virus 1) (UniProt Q72547)
Description: Inhibition of recombinant wild type HIV-1 His-tagged reverse transcriptase p66/p51 expressed in Escherichia coli assessed as reduction in [3H]dTTP incorporation using poly(rA)/oligo(dT) as template/primer after 20 mins by scintillation counting analysis

[13] = system: Human immunodeficiency virus 1; experiment: Antiviral activity against HIV-1 harboring reverse transcriptase Y188L mutant infected in human MT4 cells assessed as inhibition of virus-induced cytopathic effect after 5 days by MTT assay; type: functional, organism-based; conditions: Human immunodeficiency virus 1, MT4, 120 h
[14] = Cytotoxicity against human MT4 cells assessed as reduction in cell viability after 5 days by MTT assay; type: cell-based
[15] = system: Human immunodeficiency virus 1; experiment: Resistance index, ratio of ID50 for recombinant HIV-1 His-tagged reverse transcriptase p66/p51 K103N mutant to ID50 for recombinant wild type HIV-1 reverse transcriptase His-tagged p66/p51
[16] = system: Human immunodeficiency virus 1; experiment: Antiviral activity against HIV-1 harboring reverse transcriptase K103N mutant infected in human MT4 cells assessed as inhibition of virus-induced cytopathic effect after 5 days by MTT assay; type: functional, organism-based; conditions: Human immunodeficiency virus 1, MT4, 120 h

Question: For `CCCN(C)c1nc([C@H](OC)c2c(Cl)cccc2Cl)c(C)c(=O)[nH]1`, which EC50 [1] is on record?
Answer: Its EC50 is 0.4 nM.

Question: And the ID50 [2]?
Answer: The ID50 was 16 nM.

Question: What about the Ratio [3] of the same compound?
Answer: The Ratio was 19.

Question: And the selectivity ratio [4]?
Answer: Its selectivity ratio is 162000.

Question: And the ID50 [5]?
Answer: Its ID50 is 340 nM.

Question: And the EC50 [6]?
Answer: The EC50 was 3 nM.

Question: What about the “Ratio EC50” value [7] of the same compound?
Answer: The value was 22.

Question: What about the “Ratio EC50” value [8] of the same compound?
Answer: Its value is 7.

Question: What about the ID50 [9] of the same compound?
Answer: Its ID50 is 150 nM.

Question: And the “Ratio EC50” value [10]?
Answer: The value was 5.

Question: What about the Ratio [11] of the same compound?
Answer: The Ratio was 42.

Question: And the ID50 [12]?
Answer: Its ID50 is 8 nM.

Question: What about the EC50 [13] of the same compound?
Answer: Its EC50 is 9 nM.

Question: What about the CC50 at 120 h [14] of the same compound?
Answer: The CC50 at 120 h was 65000 nM.

Question: What about the Ratio [15] of the same compound?
Answer: The Ratio was 2.

Question: And the EC50 [16]?
Answer: The EC50 was 2 nM.

Question: Which results are given for `CCCNc1nc(C(OC)c2c(Cl)cccc2Cl)c(C)c(=O)[nH]1` (stereo not drawn)?
Answer: EC50 [1]: 15 nM; ID50 [2]: 1600 nM; Ratio [3]: 18; selectivity ratio [4]: 3280; ID50 [5]: 3700 nM; EC50 [6]: 1700 nM; Ratio EC50 [7]: 507; Ratio EC50 [8]: 113; ID50 [9]: 2200 nM; Ratio EC50 [10]: 14; Ratio [11]: 31; ID50 [12]: 120 nM; EC50 [13]: 7600 nM; CC50 at 120 h [14]: 49200 nM; Ratio [15]: 13; EC50 [16]: 210 nM

Question: For `COC(c1nc(NC2CCCC2)[nH]c(=O)c1C)c1c(F)cccc1Cl` (stereo not drawn), which EC50 [1] is on record?
Answer: Its EC50 is 7 nM.

Question: And the ID50 [2]?
Answer: Its ID50 is 120 nM.

Question: And the Ratio [3]?
Answer: Its Ratio is 27.

Question: What about the selectivity ratio [4] of the same compound?
Answer: Its selectivity ratio is 10000.

Question: And the ID50 [5]?
Answer: The ID50 was 1500 nM.

Question: And the EC50 [6]?
Answer: The EC50 was 390 nM.

Question: What about the “Ratio EC50” value [7] of the same compound?
Answer: Its value is 529.

Question: And the “Ratio EC50” value [8]?
Answer: The value was 56.

Question: And the ID50 [9]?
Answer: The ID50 was 1100 nM.

Question: What about the “Ratio EC50” value [10] of the same compound?
Answer: The value was 24.

Question: And the Ratio [11]?
Answer: Its Ratio is 37.

Question: What about the ID50 [12] of the same compound?
Answer: The ID50 was 40 nM.

Question: And the EC50 [13]?
Answer: The EC50 was 3700 nM.

Question: What about the CC50 at 120 h [14] of the same compound?
Answer: Its CC50 at 120 h is 70300 nM.

Question: And the Ratio [15]?
Answer: Its Ratio is 3.

Question: What about the EC50 [16] of the same compound?
Answer: Its EC50 is 170 nM.

Question: What does the source list for `CCCN(C)c1nc([C@@H](OC)c2c(Cl)cccc2Cl)c(C)c(=O)[nH]1`?
Answer: EC50 [1]: 15 nM; ID50 [2]: 438 nM; Ratio [3]: 24; selectivity ratio [4]: 3010; ID50 [5]: 8700 nM; EC50 [6]: 185 nM; Ratio EC50 [7]: 25; Ratio EC50 [8]: 12; ID50 [9]: 4300 nM; Ratio EC50 [10]: 12; Ratio [11]: 49; ID50 [12]: 177 nM; EC50 [13]: 380 nM; CC50 at 120 h [14]: 45200 nM; Ratio [15]: 2; EC50 [16]: 185 nM

Question: Which EC50 [1] does the source give for `Cc1c([C@H](C)c2c(F)cccc2F)nc(SC2CCCC2)[nH]c1=O` here?
Answer: The EC50 was 0.3 nM.

Question: What about the ID50 [2] of the same compound?
Answer: Its ID50 is 10 nM.

Question: And the Ratio [3]?
Answer: The Ratio was 18.

Question: And the selectivity ratio [4]?
Answer: The selectivity ratio was 185000.

Question: And the ID50 [5]?
Answer: The ID50 was 150 nM.

Question: What about the EC50 [6] of the same compound?
Answer: The EC50 was 11 nM.

Question: What about the “Ratio EC50” value [7] of the same compound?
Answer: Its value is 467.

Question: And the “Ratio EC50” value [8]?
Answer: Its value is 37.

Question: And the ID50 [9]?
Answer: Its ID50 is 90 nM.

Question: And the “Ratio EC50” value [10]?
Answer: Its value is 3.

Question: What about the Ratio [11] of the same compound?
Answer: The Ratio was 30.

Question: What about the ID50 [12] of the same compound?
Answer: The ID50 was 5 nM.

Question: What about the EC50 [13] of the same compound?
Answer: The EC50 was 140 nM.

Question: And the CC50 at 120 h [14]?
Answer: Its CC50 at 120 h is 55600 nM.

Question: And the Ratio [15]?
Answer: Its Ratio is 2.

Question: And the EC50 [16]?
Answer: The EC50 was 1 nM.

Question: What does the source list for `COC(c1nc(NC2CCCC2)[nH]c(=O)c1C)c1c(Cl)cccc1Cl` (stereo not drawn)?
Answer: EC50 [1]: 10 nM; ID50 [2]: 540 nM; Ratio [3]: 34; selectivity ratio [4]: 3400; ID50 [5]: 2400 nM; EC50 [6]: 1400 nM; Ratio EC50 [7]: 540; Ratio EC50 [8]: 140; ID50 [9]: 1900 nM; Ratio EC50 [10]: 84; Ratio [11]: 43; ID50 [12]: 56 nM; EC50 [13]: 5400 nM; CC50 at 120 h [14]: 34000 nM; Ratio [15]: 10; EC50 [16]: 840 nM

Question: Which results are given for `COC(c1nc(NC(C)C)[nH]c(=O)c1C)c1c(Cl)cccc1Cl` (stereo not drawn)?
Answer: EC50 [1]: 96 nM; ID50 [2]: 5200 nM; Ratio [3]: 11; selectivity ratio [4]: 651; ID50 [5]: 7800 nM; EC50 [6]: 5800 nM; Ratio EC50 [7]: 127; Ratio EC50 [8]: 60; ID50 [9]: 3800 nM; Ratio EC50 [10]: 31; Ratio [11]: 23; ID50 [12]: 340 nM; EC50 [13]: 12200 nM; CC50 at 120 h [14]: 62500 nM; Ratio [15]: 15; EC50 [16]: 3000 nM

Question: Which EC50 [1] does the source give for `Cc1c([C@@H](C)c2c(F)cccc2F)nc(SC2CCCC2)[nH]c1=O` here?
Answer: Its EC50 is 11 nM.

Question: What about the ID50 [2] of the same compound?
Answer: The ID50 was 540 nM.

Question: And the Ratio [3]?
Answer: Its Ratio is 17.

Question: What about the selectivity ratio [4] of the same compound?
Answer: The selectivity ratio was 3240.

Question: And the ID50 [5]?
Answer: Its ID50 is 4800 nM.

Question: What about the EC50 [6] of the same compound?
Answer: The EC50 was 1280 nM.

Question: What about the “Ratio EC50” value [7] of the same compound?
Answer: Its value is 745.

Question: And the “Ratio EC50” value [8]?
Answer: Its value is 116.

Question: What about the ID50 [9] of the same compound?
Answer: The ID50 was 2700 nM.

Question: And the “Ratio EC50” value [10]?
Answer: The value was 26.

Question: And the Ratio [11]?
Answer: Its Ratio is 31.

Question: What about the ID50 [12] of the same compound?
Answer: The ID50 was 155 nM.

Question: And the EC50 [13]?
Answer: The EC50 was 8200 nM.

Question: What about the CC50 at 120 h [14] of the same compound?
Answer: The CC50 at 120 h was 35600 nM.

Question: What about the Ratio [15] of the same compound?
Answer: Its Ratio is 3.

Question: What about the EC50 [16] of the same compound?
Answer: The EC50 was 282 nM.
